Source: patent publication US10471161B2, “Vinylsulfone-based 18F-labeling compositions and methods and uses thereof” (priority 2014, dated 2019)
Where a SMILES comes first, the peptide text is derived from it. [ ]: non-standard residue; d: D form. The star is where a group is joined. ξ: configuration not given here. ξGly(4-Pip(1-amidino)) = N=C(N)N1CCC(C(N)C(=O)O)CC1; ξGly(piperidin-4-yl) = NC(C(=O)O)C1CCNCC1; Tle = CC(C)(C)[C@H](N)C(=O)O; X1 = O=S(=O)(CCOCCOCCF)CC*

Experiments:
[1] = in vitro stability, incubation in PBS, radio-HPLC; format: physicochemical; details: 4 hr post HPLC purification
Procedure: ^18F-DEG-VS (100 μL, 1 mCi) and 30 μL of borate buffer (pH 8.5) were added into Neurotensin (100 μg, […]) or (Ac)-NT and the reaction mixture was incubated at room temperature for 5-10 min. The reaction was quenched by acetic acid (5%, 600 μL) and product was purified by radio HPLC using Method 1. The retention time of ^18F-DEG-VS-NT was 25.6 min and (^18F-DEG-VS)2-NT was not observed. […] An aliquot of the solution was then analyzed by radio-HPLC to determine the radiochemical purify. The retention time of ^18F-DEG-VS-(Ac)-NT was 28.4 min.

[2] = target: T1, NTR1 (Homo sapiens, UniProt P30989); assay: competitive cell-binding assay with 125I-NT(8-13) in HT-29 cells; details: 1 hr at 37° C, n=3, read-out: IC50, inhibition of binding of 125I-NT(8-13) to NTR1 positive HT-29 cells
T1 construct: host or cells: HT-29 human colon adenocarcinoma cells (intact, adherent)
T1 sequence (P30989 whole entry): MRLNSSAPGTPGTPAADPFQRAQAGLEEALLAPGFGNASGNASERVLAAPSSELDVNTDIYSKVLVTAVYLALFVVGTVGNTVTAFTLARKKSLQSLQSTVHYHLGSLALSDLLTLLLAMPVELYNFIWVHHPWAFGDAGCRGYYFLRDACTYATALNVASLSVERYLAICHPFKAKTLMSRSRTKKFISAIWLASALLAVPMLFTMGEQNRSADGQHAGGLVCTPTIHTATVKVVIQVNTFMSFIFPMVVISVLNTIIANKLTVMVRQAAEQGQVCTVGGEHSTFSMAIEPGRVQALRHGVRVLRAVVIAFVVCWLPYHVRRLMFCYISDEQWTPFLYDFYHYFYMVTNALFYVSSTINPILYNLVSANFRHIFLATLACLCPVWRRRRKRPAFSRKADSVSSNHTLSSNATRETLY
Procedure: The human colon adenocarcinoma cell HT29 was obtained from American Type Culture Collection and maintained at 37° C. in a humidified atmosphere containing 5% CO2 in RPMI-1640, supplemented with 1% L-glutamine, 1% penicillin/streptomycin and 10% fetal bovine serum (Life Technologies, Inc.).
In detail, HT-29 cells were placed in 48-wells plates (1 million/0.4 mL/well) and were incubated for overnight. The cells were washed three times with binding buffer (50 mM Hepes, 125 mM NaCl, 7.5 mM KCl, 5.5 mM MgCl2, 1 mM EGTA, 5 g/L BSA, 2 mg/L chymostatin, 100 mg/L soybean trypsin inhibitor, 50 mg/L bacitracin, pH 7.4). […] After washing, cells were solubilized with 1 mol/L NaOH at 37° C. and the radioactivity was determined using a gamma counter. The best-fit 50% inhibitory concentration (IC50) values for HT-29 cells were calculated by fitting the data with nonlinear regression using GraphPad Prism (GraphPad Software). Experiments were performed on triplicate samples.

| IC50 [2] [nM] | SMILES | radiochemical purity after incubation in PBS [1] |
| --- | --- | --- |
| – | C=CS(=O)(=O)CCOCCOCC[18F] [^18F-DEG-VS] | more than 99% |
| 2.03 ± 0.22 | CC(C)C[C@H](NC(=O)[C@@H](NC(=O)[C@H](Cc1ccc(O)cc1)NC(=O)[C@@H]1CCCN1C(=O)[C@H](CCCNC(=N)N)NC(=O)C(NC(=O)[C@@H]1CCCN1C(=O)C(NC(=O)[C@@H](N)CSCCS(=O)(=O)CCOCCOCCF)C1CCNCC1)C1CCN(C(=N)N)CC1)C(C)(C)C)C(=O)O (stereo partly drawn) [^19F-DEG-VS-NT] (H-C(X1)[ξGly(piperidin-4-yl)]P[ξGly(4-Pip(1-amidino))]RPY[Tle]L-OH) | – |
